Measured values as given in US9873725B2, “Mimetic peptides which modulate L-type calcium channels” (CONSIGLIO NAZIONALE DELLE RICERCHE, priority 2014, dated 2018).
Where no end group is shown, it is not given here.

What was measured:
pdk1 knockout mice = test: Genetic mouse model of heart failure (inducible cardiac specific PDK1 knockout); type: in vivo; conditions: for cardiac (left ventricular) function, echocardiography: PDK1 knockout mice after tamoxifen, cell penetrating peptides
Procedure: (a, top) Design of study. Echo, echocardiography. (a, bottom) Fractional shortening (%) as determined by echocardiography in pdk1 knockout mice treated with mimetic peptide (TAT-MP) or scramble (TAT-scramble). (b) Western blotting analysis of Cavα1.2 and GAPDH protein levels of total protein lysates from left ventricular homogenates. Protein levels were normalized to GAPDH. (n=4) MP=SEQ ID NO:3, scramble=SEQ ID NO:11. Tamoxifen (TAM) and peptide was injected daily as indicated. Protein levels were normalized to GAPDH.
To explore the in vivo therapeutic potential, MP was used in an inducible and cardiac specific knockout of the phosphoinositide-dependent kinase 1 (PDK1), the upstream activator of all three Akt isoforms. […] We then treated the mice with either cell penetrating MP or scramble peptides and followed the phenotype for the following days. […] MP=SEQ ID NO: 3; TAT-scramble=scramble=SEQ ID NO:11.

iPSC-CM beating clusters = test: Ca2+ handling in iPSC-CM beating clusters treated with Akt-inhibitor; type: cell-based, human; conditions: iPSC-CM beating clusters co-treated with Akt-inhibitor
Text: (§1) Based on this, we next performed functional analyses and examined the iPSC-CM beating clusters (BCs) for Ca^2+ handling properties. […] On the other hand, no effects were observed when BCs were co-treated with scramble.

LTCC = target: T1, LTCC (Homo sapiens, UniProt Q08289); test: Ca2+ current measurements in tSA-201 cells, serum removal; type: cell-based
T1 construct: expressed in transfected cells; host or cells: tSA-201
Text: (§2) a) Western blotting analysis of Cavα1.2 and GAPDH protein levels of total protein lysates; b) Intracellular Ca^2+fluxes; (c) Molecular modeling and docking of a peptide (SEQ ID NO:2, dark grey) to TID region (SEQ ID NO:10, light grey) of Cavβ2.; (d) Western blotting analysis of Cavα1.2 and GAPDH protein levels of total protein lysates; (e) Confocal analyses of adult cardiomyocytes treated with TAT-MP- and TAT-scramble-and stained with di 8-ANEPPS dye. MP=SEQ ID NO:3, scramble=SEQ ID NO:11. (f) Western blotting analysis of Cavα1.2 and GAPDH protein levels of total protein lysates from HEK293 cells treated with increasing doses of MP; (g) Ca^2+ current measurements in tSA-201 cells previously transfected. For Western blotting analyses, HEK293 or tSA-201 cells transfected or treated as indicated. Protein levels were normalized to GAPDH. (n=4). Data are shown as the means±SEM; *, P<0.05, **, P<0.005; ***, P<0.001.
(§3) To facilitate the intracellular uptake, a cell-penetrating peptide (CPP) was conjugated to the MP (SEQ ID NO: 3). […] Thus, the trans-activating transcriptional activator (TAT) from Human Immunodeficiency Virus 1 (HIV-1) was used. […] TAT-MP=SEQ ID NO: 3; TAT-scramble=scramble=SEQ ID NO:11.

Cavα1.2 [1] = test: Western blot of Cavα1.2 protein degradation in peptide-treated cells, serum removal; type: cell-based
Text: as §2, §3

LTCCs = test: Confocal analysis of co-localization with LTCCs in isolated adult cardiomyocytes; type: cell-based
Text: as §2, §3

Cavα1.2 [2] = test: Western blot of Cavα1.2 protein levels in iPSC-CMs subjected to an Akt inhibitor; type: cell-based, human; conditions: iPSC-CMs co-treated with Akt inhibitor
Text: (a) Western blotting analysis of Cavα1.2 and GAPDH protein levels of total protein lysates from cardiomyocytes (CMs) differentiated from induced pluripotent stem cells (iPSCs) and previously derived from skin fibroblasts of healthy individuals. (n=4) Cells were untreated or treated with an Akt-inhibitor. MP=SEQ ID NO:3, scramble=SEQ ID NO:11.
as §1

Cavα1.2 [3] = test: Western blot of Cavα1.2 protein levels in HEK293 cells transfected with peptides, serum removal; type: cell-based; conditions: specific mutations within either the MP or Cavα1.2
Text: as §2
Based on the evidence shown in example 1, we next investigated whether mimetic peptides (MPs) might recapitulate the mechanism by which LTCCs are protected from protein degradation by binding to the TID domain. […]

T1 sequence (Q08289 whole entry): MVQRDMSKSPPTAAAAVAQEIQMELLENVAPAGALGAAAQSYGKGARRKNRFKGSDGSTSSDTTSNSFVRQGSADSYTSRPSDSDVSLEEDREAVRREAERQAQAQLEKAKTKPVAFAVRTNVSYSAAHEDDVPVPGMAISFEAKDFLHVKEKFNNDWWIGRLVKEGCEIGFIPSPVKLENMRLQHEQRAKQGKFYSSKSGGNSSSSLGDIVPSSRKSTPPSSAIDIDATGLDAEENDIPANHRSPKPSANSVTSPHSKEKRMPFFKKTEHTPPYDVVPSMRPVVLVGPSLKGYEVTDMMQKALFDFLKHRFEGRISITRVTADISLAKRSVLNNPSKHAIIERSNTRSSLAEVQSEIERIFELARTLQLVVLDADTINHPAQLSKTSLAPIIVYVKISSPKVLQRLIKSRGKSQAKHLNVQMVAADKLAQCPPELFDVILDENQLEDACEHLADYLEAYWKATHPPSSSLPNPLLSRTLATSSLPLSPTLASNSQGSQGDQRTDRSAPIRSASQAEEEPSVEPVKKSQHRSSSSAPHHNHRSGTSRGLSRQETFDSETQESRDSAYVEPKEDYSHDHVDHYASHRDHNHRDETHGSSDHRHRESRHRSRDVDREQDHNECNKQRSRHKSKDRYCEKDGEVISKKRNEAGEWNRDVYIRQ
T1 sequence (Q13936 whole entry partner): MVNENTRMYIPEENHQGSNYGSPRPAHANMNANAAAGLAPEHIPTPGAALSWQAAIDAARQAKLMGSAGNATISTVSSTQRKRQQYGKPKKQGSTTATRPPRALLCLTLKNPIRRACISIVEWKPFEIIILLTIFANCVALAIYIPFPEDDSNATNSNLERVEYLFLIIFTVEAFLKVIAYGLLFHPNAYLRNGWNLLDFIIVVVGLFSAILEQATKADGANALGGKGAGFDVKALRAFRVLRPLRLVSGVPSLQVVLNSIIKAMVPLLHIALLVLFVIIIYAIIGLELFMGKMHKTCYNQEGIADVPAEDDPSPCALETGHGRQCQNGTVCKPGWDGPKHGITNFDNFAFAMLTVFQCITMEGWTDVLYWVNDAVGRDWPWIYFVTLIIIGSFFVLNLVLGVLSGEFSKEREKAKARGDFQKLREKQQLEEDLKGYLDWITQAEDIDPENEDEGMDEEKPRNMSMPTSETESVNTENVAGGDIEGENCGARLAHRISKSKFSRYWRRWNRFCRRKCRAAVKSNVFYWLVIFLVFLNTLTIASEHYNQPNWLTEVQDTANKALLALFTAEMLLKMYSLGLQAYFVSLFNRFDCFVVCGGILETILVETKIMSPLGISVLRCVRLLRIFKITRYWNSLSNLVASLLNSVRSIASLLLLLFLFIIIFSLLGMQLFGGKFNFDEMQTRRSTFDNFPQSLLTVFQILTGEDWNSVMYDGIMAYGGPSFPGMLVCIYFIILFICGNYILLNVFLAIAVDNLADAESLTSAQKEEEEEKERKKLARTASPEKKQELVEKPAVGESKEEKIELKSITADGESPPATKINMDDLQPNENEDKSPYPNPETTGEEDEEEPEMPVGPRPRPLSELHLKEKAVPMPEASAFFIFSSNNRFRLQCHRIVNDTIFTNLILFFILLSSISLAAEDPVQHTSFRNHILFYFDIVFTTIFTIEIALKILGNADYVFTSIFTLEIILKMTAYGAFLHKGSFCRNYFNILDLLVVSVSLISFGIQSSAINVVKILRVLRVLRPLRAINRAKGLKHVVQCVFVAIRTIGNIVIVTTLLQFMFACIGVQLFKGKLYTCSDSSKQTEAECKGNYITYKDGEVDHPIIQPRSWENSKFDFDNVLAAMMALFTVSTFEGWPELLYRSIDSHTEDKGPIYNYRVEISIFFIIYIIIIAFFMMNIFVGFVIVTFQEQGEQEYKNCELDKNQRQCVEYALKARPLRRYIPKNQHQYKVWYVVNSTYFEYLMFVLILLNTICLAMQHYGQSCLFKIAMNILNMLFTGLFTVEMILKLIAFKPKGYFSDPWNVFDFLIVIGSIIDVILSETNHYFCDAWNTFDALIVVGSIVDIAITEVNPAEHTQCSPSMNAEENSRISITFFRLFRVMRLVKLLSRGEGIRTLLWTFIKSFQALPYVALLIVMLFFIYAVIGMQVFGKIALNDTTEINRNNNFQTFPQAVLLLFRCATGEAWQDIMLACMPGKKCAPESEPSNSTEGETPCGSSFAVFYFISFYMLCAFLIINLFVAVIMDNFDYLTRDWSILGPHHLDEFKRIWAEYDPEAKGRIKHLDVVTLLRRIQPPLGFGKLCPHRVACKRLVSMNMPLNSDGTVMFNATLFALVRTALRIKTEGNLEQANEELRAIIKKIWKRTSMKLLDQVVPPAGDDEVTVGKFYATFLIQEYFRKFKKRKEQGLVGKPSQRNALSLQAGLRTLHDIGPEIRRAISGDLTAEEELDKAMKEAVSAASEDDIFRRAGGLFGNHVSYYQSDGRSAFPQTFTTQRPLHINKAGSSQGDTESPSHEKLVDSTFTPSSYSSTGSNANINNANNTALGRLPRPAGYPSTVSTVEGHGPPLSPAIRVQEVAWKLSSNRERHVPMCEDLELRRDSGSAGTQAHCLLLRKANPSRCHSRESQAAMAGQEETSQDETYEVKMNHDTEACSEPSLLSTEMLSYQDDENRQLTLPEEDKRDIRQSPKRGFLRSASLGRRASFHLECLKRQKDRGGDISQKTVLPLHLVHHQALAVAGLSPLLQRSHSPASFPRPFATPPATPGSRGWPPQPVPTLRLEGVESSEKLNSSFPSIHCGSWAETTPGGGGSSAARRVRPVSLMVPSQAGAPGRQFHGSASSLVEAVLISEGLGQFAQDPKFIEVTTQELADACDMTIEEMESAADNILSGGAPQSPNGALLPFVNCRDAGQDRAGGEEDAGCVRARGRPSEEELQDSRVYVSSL

DQPPSRRDERA [scramble control peptide]
cardiac (left ventricular) function, echocardiography (pdk1 knockout mice): progressive impairment of left ventricular function | slowing (delay) of Ca2+ transient development (iPSC-CM beating clusters): no effects | Ca2+ current (LTCC): none of these effects were observed | protection of Cavα1.2 from protein degradation (Cavα1.2 [1]): none of these effects were observed | co-localization with LTCCs (LTCCs): none of these effects were observed | downregulation of Cavα1.2 protein levels (Cavα1.2 [2]): no rescuing effects

DQRPDREAPRS [MP]
cardiac (left ventricular) function, echocardiography (pdk1 knockout mice): significant attenuation of the impairment of cardiac function | LTCC protein levels (pdk1 knockout mice; left ventricular homogenates of PDK1 knockout mice): restoration of LTCC protein levels | slowing (delay) of Ca2+ transient development (iPSC-CM beating clusters): sufficient for reducing this delay | protective effect on Cavα1.2 when mutations abolish the predicted MP-TID interaction (Cavα1.2 [3]): completely lost | downregulation of Cavα1.2 protein levels (Cavα1.2 [2]): prevented
